# According to patent US20250019398A1, “NONAMERIC PEPTIDE HAVING EXCELLENT ANTIBACTERIAL ACTIVITY AGAINST GRAM-NEGATIVE BACTERIA AND ENANTIOMER THEREOF” (priority 2021, published 2025):
# “Also recorded” adds a separate entry of the source. Read-outs that look alike come from different tables or passages of the source. Ends that are not written are not given here.
# Tests used:
# [1] = tested on: carbapenem-resistant E. coli NCCP16044 (CREC 16044); experiment: microbe, parasite or virus in culture; assay type: cell-based; conditions: 16 hours, read-out: Minimal inhibitory concentration (MIC), CREC 16044
# Source text: (§1) Among the bacterial strains used in the experiment, Escherichia coli KCTC 1682 was obtained from the Korean Collection for Type Cultures (KCTC) (Jeongeup, Korea), Acinetobacter baumannii KCCM 40203 and Pseudomonas aeruginosa KCCM 11328 were obtained from the Korean Culture Center of Microorganisms (KCCM) (Seoul, Korea), and Klebsiella pneumonia NCCP 16054 was obtained from the National Culture Collection for Pathogens (NCCP) (Osong, Korea). In addition, carbapenem-resistant E. coli NCCP16044 and carbapenem-resistant Klebsiella pneumonia NCCP 15782 were obtained from the NCCP, and three types of carbapenem-resistant A. baumanii CCARM 12004-6 were obtained from the Culture Collection of Antimicrobial Resistance Microbes (CCARM) (Cheongju City, Korea). The E. coli K1 (ATCC700973) strain used in the animal experiments was obtained from the American Type Culture Collection (ATCC) ([…]).
# (§2) The antimicrobial activities of the peptides were measured by a minimal inhibitory concentration (MIC) analysis. The MIC was determined using a broth dilution method. All bacterial strains were grown overnight at 37° C. in a Muller-Hinton (MH) medium.
# [2] = tested on: CRAB 12006 (carbapenem-resistant A. baumanii CCARM); experiment: MIC, broth dilution; assay type: cell-based, A. baumannii; conditions: 16 hours, read-out: Minimal inhibitory concentration (MIC), CRAB 12006
# Source text: as §1, §2
# [3] = tested on: CRAB 12004 (carbapenem-resistant A. baumanii CCARM); experiment: MIC, broth dilution; assay type: cell-based, A. baumannii; conditions: 16 hours, read-out: Minimal inhibitory concentration (MIC), CRAB 12004
# Source text: as §1, §2
# [4] = tested on: CRAB 12005 (carbapenem-resistant A. baumanii CCARM); experiment: MIC, broth dilution; assay type: cell-based, A. baumannii; conditions: 16 hours, read-out: Minimal inhibitory concentration (MIC), CRAB 12005
# Source text: as §1, §2
# LPS = experiment: LAL chromogenic endotoxin assay (LPS neutralization); assay type: biochemical; conditions: LPS 2 ng/mL; peptide concentration of the values not stated (3.1-50 μM tested)
# Description: Peptide-mediated LPS-neutralizing activity was determined using a Limulus amebocyte lysate (LAL) chromogenic endotoxin quantification kit (GenScript, New Jersey, USA). 3.1, 6.3, 10, 12.5, 25, and 50 μM of each peptide were allowed to react so as to interact with LPS (2 ng/mL) at 37° C. for 10 minutes. LL-37, which is known to have high LPS-neutralizing ability, was used as a control. After an LAL enzyme (10 μL) was added to the peptide-LPS complex and the resulting mixture was allowed to react for 10 minutes, a chromogenic substrate was added thereto. An endotoxin level was shown by measuring the absorbance at 545 nm in triplicate and expressed in endotoxin units (EUs) per milliliter.
# [5] = tested on: sheep red blood cells (sRBCs); experiment: Hemolysis of sheep red blood cells; assay type: cell-based; conditions: red cells of sheep
# Description: Peptide-induced toxicity was determined by hemolysis of sheep red blood cells (sRBCs). Fresh sRBCs were washed three times or more with phosphate buffered saline (PBS), and debris was removed by centrifugation (1000×g, 5 minutes, 4° C.). All the peptides including a melittin control (0.2 to 100 μM) and a positive control (1% (v/v) Triton X-100) were cultured with 4% (v/v) sRBCs at 37° C. for 1 h, and then centrifuged at 1000×g for 5 minutes. The supernatant was measured at 405 nm using a microplate reader.
# [6] = tested on: Klebsiella pneumonia NCCP 16054; experiment: MIC, broth dilution; assay type: cell-based; conditions: standard Gram-negative bacteria, 16 hours
# Source text: as §1, §2
# [7] = tested on: carbapenem-resistant Klebsiella pneumonia NCCP 15782 (CRKP 15782); experiment: MIC, broth dilution; assay type: cell-based; conditions: 16 hours
# Source text: as §1, §2
# [8] = tested on: RAW 264.7 mouse macrophages; experiment: WST-8 cytotoxicity; assay type: cell-based; conditions: 100 μM, 24 hours
# Description: (§3) Additionally, for a cell-based toxicity assay, RAW 264.7 mouse macrophages and human kidney (HK)-2 cells were obtained from the Korean Cell Line Bank (Seoul, Korea), and cells were maintained in a DMEM culture medium (Thermo Fischer Scientific Inc., MA, USA) supplemented with 10% fetal bovine serum and 1% penicillin/streptomycin at 37° C. in a humidified 5% CO2 incubator. The cytotoxicity of the peptides was analyzed using a WST-8 cell proliferation assay (Biomax Co, Ltd, Seoul, South Korea), and the experiment was performed according to the kit protocol. Cells (1×10^4) were seeded in a 96-well plate, the peptide treatment (0 to 100 μM) were initiated at 80% confluency and then the cells were cultured for 24 hours. After culturing, a WST-8 reagent was added and the change in absorbance was read at 450 nm relative to the reagent blank, and values were expressed as percent cell survival.
# [9] = tested on: human kidney (HK)-2 cells; experiment: WST-8 cytotoxicity; assay type: cell-based; conditions: 100 μM, 24 hours
# Description: as §3
# LPS (E. coli O111:B4) = experiment: BODIPY-TR cadaverine displacement assay (LPS binding); conditions: 4 μM, 30 minutes
# Description: The binding ability of peptides to LPS was investigated by BODIPY-TR cadaverine (BC, Thermo Fisher Scientific, MA, USA) displacement assay (FIG. 2A). A probe complex was prepared by mixing 5 μg/mL BC and 5 μg/mL LPS (E. coli O111:B4, Sigma-Aldrich, St. Louis, MO, USA) in a 50 mM Tris buffer (pH 7.4) at room temperature for 6 hours. Peptides containing a polymyxin B (PMB) control (1 to 64 μM), which is known to have high LPS binding ability, were allowed to interact with the LPS-BC mixture in a black 96-well plate for 30 minutes. Relative fluorescence intensities were recorded using a fluorescence microplate reader (Molecular Devices, San Jose, USA) at an excitation wavelength of 580 nm and an emission wavelength of 620 nm.
molecule,measurement,setting,value
C[C@@H](O)[C@H]1C(=O)N2C(C(=O)O)=C(SCCN=CN)C[C@H]12 [Imipenem],MIC,[1]; Escherichia coli,8 µM
same,MIC,[2]; Acinetobacter baumannii,64 µM
same,MIC,[3]; Acinetobacter baumannii,64 µM
same,MIC,[4]; Acinetobacter baumannii,64 µM
LL-37,LPS neutralization,LPS,76.5%
RLWLAIWRR-NH2 [Pro9-3],HC10 (peptide concentration that induces 10% hemolysis),[5],200 µM
same,MIC,[1],16 µM
same,"Minimal inhibitory concentration (MIC), K. pneumonia",[6],64 µM
same,"Minimal inhibitory concentration (MIC), CRKP 15782",[7],64 µM
same,Toxicity in RAW264.7 cells,[8],neither R-Pro9-3 nor Pro9-3 showed toxicity; also recorded: non-toxic
same,Toxicity in human kidney (HK)-2 cells,[9],neither R-Pro9-3 nor Pro9-3 showed toxicity; also recorded: non-toxic
same,MIC,[2],16 µM
same,MIC,[3],16 µM
same,MIC,[4],16 µM
polymyxin B [PMB],BC displacement (LPS binding),LPS (E. coli O111:B4),76.6%
